# Laboratory results as given in patent publication US12226409B2, “Treatment of hepatocellular carcinoma” (Eisai R&D Management Co., Ltd., priority 2017, dated 2025).
# What was measured:
# [1] = test system: unresectable hepatocellular carcinoma (HCC); assay: REFLECT study, efficacy per independent review; type: in vivo, human
# Method: The efficacy of LENVIMA was evaluated in a randomized, open-label, multicenter, international study (REFLECT; […]) conducted in patients with previously untreated unresectable hepatocellular carcinoma (HCC).
# [2] = test system: patients with unresectable HCC; assay: Open-label phase 3 study, safety and side-effect profile (CTCAE v4.0)
# Description: (§3) Randomization was stratified according to region (Asia-Pacific or Western regions), macroscopic portal vein invasion and/or extrahepatic spread (yes or no), Eastern Cooperative Oncology Group performance status (0 or 1), and body weight (<60 kg or ≥60 kg).
# (§4) Safety assessments included recording of vital signs, hematologic and biochemical laboratory testing, urinalysis, and electrocardiography.
# [3] = test system: patients with unresectable HCC; conditions: human, in vivo
# Description: as §3, §4
# unresectable HCC = assay: Open-label phase 3 noninferiority study, efficacy (tumor assessment by mRECIST); type: in vivo, human
# Description: (§1) The primary endpoint was overall survival.
# Patients who were eligible for enrollment had unresectable HCC with diagnosis confirmed histologically or cytologically or with diagnosis confirmed clinically in accordance with the American Association for the Study of Liver Diseases criteria. Included patients also had ≥1 measureable target lesion, based on modified Response Evaluation Criteria in Solid Tumors (Lencioni 2010); Barcelona Clinic Liver Cancer stage B or C categorization (Bruix Hepatology 2011); Child-Pugh class A; and Eastern Cooperative Oncology Group performance status ≤1. All eligible patients had controlled blood pressure (≤150/90 mm Hg), and adequate organ function. Patients with ≥50% liver occupation, clear bile duct invasion, or portal vein invasion at the main portal vein were excluded. Patients also were excluded if that had received prior systemic therapy for HCC.
# (§2) Tumors were evaluated in accordance with mRECIST (Lencioni R., Semin Liver Dis., 30(1):52-60, 2010); RECIST 1.1 was applied for nonhepatic lesions (Eisenhauer, Eur J Cancer, 45(2):228-47, 2009). The liver was examined with computed tomography or magnetic resonance imaging was performed using a triphasic scanning technique. Assessments were performed every 8 weeks until disease progression. Quality of life questionnaires were administered at baseline, on day 1 of each subsequent treatment cycle, and at the off-treatment visit.
# The primary endpoint of overall survival was first tested for noninferiority then for superiority. The required number of events for the primary analysis was 700 deaths, based on the fill analysis set. The HR and its 95% confidence interval (CI) were estimated from a Cox proportional hazard model with treatment group as a factor and with the analysis stratified according to the same factors applied for randomization.
# A fixed-sequence procedure was followed to control the overall type I error rate of analyses for both the primary and secondary efficacy endpoints at α=0.05 (2-sided). After noninferiority was declared, secondary efficacy endpoints were tested. Differences in progression-free survival and time to progression were evaluated using a stratified log-rank test with randomization stratification factors, with the associated HR and its 95% CI. A difference in the objective response rate was evaluated using the Cochran-Mantel-Haenszel chi-square test with randomized stratification factors as strata, with associated odds ratio and its 95% CI. To assess futility, 2 interim analyses (at 30% and 70% of the target number of events) were performed using Bayesian predictive probability in a noninferiority design by the independent data monitoring committee.
# [4] = test system: patients with unresectable HCC; assay: Quality of life, EORTC QLQ-C30 and QLQ-HCC18 questionnaires; type: in vivo, human; conditions: role functioning, pain, diarrhea (QLQ-C30); nutrition, body image (QLQ-HCC18)
# Method: as §1, §2
# HCC = conditions: cited from earlier work
# Dissociation constant = type: physicochemical; conditions: 25° C.
# Partition coefficient = type: physicochemical; conditions: read-out: partition coefficient (log P value)
# Solubility = type: physicochemical
smiles,measurement,setting,value
CNC(=O)c1cc(Oc2ccc(NC(=O)Nc3ccc(Cl)c(C(F)(F)F)c3)cc2)ccn1 [Sorafenib],Median PFS,"[1]; RECIST 1.1, independent review",3.6 months
same,PFS Number of Events,"[1]; RECIST 1.1, independent review",320
same,PFS Number of Events (%),"[1]; RECIST 1.1, independent review",(67) %
same,Median OS,[1]; in vivo,12.3 months
same,Number of deaths,[1]; in vivo,350
same,Number of deaths (%),[1]; in vivo,(74) %
same,Median PFS,"[1]; mRECIST, independent review",3.6 months
same,PFS Number of Events,"[1]; mRECIST, independent review",323
same,PFS Number of Events (%),"[1]; mRECIST, independent review",(68) %
same,treatment-related fatal adverse events included,[2]; 1 event per patient,"tumor hemorrhage, ischemic stroke, respiratory failure, and sudden death"
same,"AEs leading to dose reduction or interruption, subjects",[3],55.6%
same,Dose modification: AST increased,[3],3.8%
same,Dose modification: ascites,[3],1.1%
same,Dose modification: hepatic encephalopathy,[3],0.6%
same,Dose modification: neutrophil count decreased,[3],1.1%
same,Dose modification: pyrexia,[3],1.1%
same,Dose modification: vomiting,[3],1.3%
same,Dose modification: weight decreased,[3],0.8%
same,Dose reduction/interruption: Abdominal pain,[3],8 (1.7) n (%)
same,Dose reduction/interruption: Abdominal pain upper,[3],2 (0.4) n (%)
same,Dose reduction/interruption: Alanine aminotransferase increased,[3],9 (1.9) n (%)
same,Dose reduction/interruption: Anemia,[3],8 (1.7) n (%)
same,Dose reduction/interruption: Ascites,[3],5 (1.1) n (%)
same,Dose reduction/interruption: Aspartate aminotransferase increased,[3],18 (3.8) n (%)
same,Dose reduction/interruption: Asthenia,[3],9 (1.9) n (%)
same,Dose reduction/interruption: Blood and lymphatic system disorders,[3],13 (2.7) n (%)
same,Dose reduction/interruption: Blood bilirubin increased,[3],14 (2.9) n (%)
same,Dose reduction/interruption: Decreased appetite,[3],15 (3.2) n (%)
same,Dose reduction/interruption: Dehydration,[3],0 (0.0) n (%)
same,Dose reduction/interruption: Diarrhea,[3],35 (7.4) n (%)
same,Dose reduction/interruption: Dyspnea,[3],4 (0.8) n (%)
same,Dose reduction/interruption: Edema peripheral,[3],3 (0.6) n (%)
same,Dose reduction/interruption: Esophageal varices hemorrhage,[3],1 (0.2) n (%)
same,Dose reduction/interruption: Fatigue,[3],17 (3.6) n (%)
same,Dose reduction/interruption: Gamma-glutamyltransferase increased,[3],4 (0.8) n (%)
same,Dose reduction/interruption: Gastrointestinal disorders,[3],72 (15.2) n (%)
same,Dose reduction/interruption: General disorders and administration site conditions,[3],35 (7.4) n (%)
same,Dose reduction/interruption: Hepatic encephalopathy,[3],3 (0.6) n (%)
same,Dose reduction/interruption: Hepatic function abnormal,[3],9 (1.9) n (%)
same,Dose reduction/interruption: Hepatobiliary disorders,[3],19 (4.0) n (%)
same,Dose reduction/interruption: Hypertension,[3],18 (3.8) n (%)
same,Dose reduction/interruption: Hyponatremia,[3],0 (0.0) n (%)
same,Dose reduction/interruption: Investigations,[3],52 (10.9) n (%)
same,Dose reduction/interruption: Malaise,[3],0 (0.0) n (%)
same,Dose reduction/interruption: Metabolism and nutrition disorders,[3],19 (4.0) n (%)
same,Dose reduction/interruption: Musculoskeletal and connective tissue disorders,[3],9 (1.9) n (%)
same,Dose reduction/interruption: Myalgia,[3],0 (0.0) n (%)
same,Dose reduction/interruption: Nausea,[3],9 (1.9) n (%)
same,Dose reduction/interruption: Nervous system disorders,[3],14 (2.9) n (%)
same,Dose reduction/interruption: Neutropenia,[3],0 (0.0) n (%)
same,Dose reduction/interruption: Neutrophil count decreased,[3],5 (1.1) n (%)
same,Dose reduction/interruption: PPE syndrome,[3],18.5%
same,Dose reduction/interruption: Palmar-plantar erythrodysesthesia syndrome,[3],88 (18.5) n (%)
same,Dose reduction/interruption: Platelet count decreased,[3],12 (2.5) n (%)
same,Dose reduction/interruption: Proteinuria,[3],7 (1.5) n (%)
same,Dose reduction/interruption: Pyrexia,[3],5 (1.1) n (%)
same,Dose reduction/interruption: Rash,[3],10 (2.1) n (%)
same,Dose reduction/interruption: Rash maculo-papular,[3],5 (1.1) n (%)
same,Dose reduction/interruption: Renal and urinary disorders,[3],9 (1.9) n (%)
same,"Dose reduction/interruption: Respiratory, thoracic and mediastinal disorders",[3],12 (2.5) n (%)
same,Dose reduction/interruption: Stomatitis,[3],2 (0.4) n (%)
same,Dose reduction/interruption: Thrombocytopenia,[3],4 (0.8) n (%)
same,Dose reduction/interruption: Vascular disorders,[3],19 (4.0) n (%)
same,Dose reduction/interruption: Vomiting,[3],6 (1.3) n (%)
same,Dose reduction/interruption: Weight decreased,[3],4 (0.8) n (%)
same,Dose reduction/interruption: White blood cell count decreased,[3],4 (0.8) n (%)
same,Dose reduction/interruption: decreased appetite,[3],3.2%
same,Dose reduction/interruption: diarrhea,[3],7.4%
same,Dose reduction/interruption: fatigue,[3],3.6%
same,Dose reduction/interruption: hypertension,[3],3.8%
same,Dose reduction/interruption: proteinuria,[3],1.5%
same,Primary reason for discontinuation of treatment: Adverse event,[3],43 (9.0) n (%)
same,Subjects with Any TEAEs,[3],472 (99.4) n (%)
same,Subjects with any TEAEs leading to Dose Reduction or Interruption,[3],264 (55.6) n (%)
same,TEAE: Abdominal pain,[3],87 (18.3) n (%)
same,TEAE: Abdominal pain upper,[3],40 (8.4) n (%)
same,TEAE: Alanine aminotransferase increased,[3],52 (10.9) n (%)
same,TEAE: Alopecia,[3],119 (25.1) n (%)
same,TEAE: Ascites,[3],44 (9.3) n (%)
same,TEAE: Aspartate aminotransferase increased,[3],80 (16.8) n (%)
same,TEAE: Asthenia,[3],48 (10.1) n (%)
same,TEAE: Back pain,[3],31 (6.5) n (%)
same,TEAE: Blood bilirubin increased,[3],63 (13.3) n (%)
same,TEAE: Constipation,[3],52 (10.9) n (%)
same,TEAE: Edema peripheral,[3],33 (6.9) n (%)
same,TEAE: Fatigue,[3],119 (25.1) n (%)
same,TEAE: Nausea,[3],68 (14.3) n (%)
same,TEAE: Palmar-plantar erythrodysesthesia,[3],52.4%
same,TEAE: Palmar-plantar erythrodysesthesia syndrome,[3],249 (52.4) n (%)
same,TEAE: Platelet count decreased,[3],58 (12.2) n (%)
same,TEAE: Pyrexia,[3],63 (13.3) n (%)
same,TEAE: Rash,[3],76 (16.0) n (%)
same,TEAE: Stomatitis,[3],56 (11.8) n (%)
same,TEAE: Vomiting,[3],36 (7.6) n (%)
same,TEAE: Weight decreased,[3],106 (22.3) n (%)
same,"Treatment-emergent adverse events of grade 3 or higher, patients",[3],66.5%
same,"Treatment-emergent adverse events, patients",[3],99.4%
same,"WBC count deceased, adjusted by treatment duration",[3],0.15 episodes per SY
same,"dysphonia, adjusted by treatment duration",[3],0.28 episodes per SY
same,"hepatic encephalopathy, adjusted by treatment duration",[3],0.04 episodes per SY
same,"hypothyroidism, adjusted by treatment duration",[3],0.03 episodes per SY
same,"neutrophil count decreased, adjusted by treatment duration",[3],0.06 episodes per SY
same,"proteinuria, adjusted by treatment duration",[3],0.31 episodes per SY
same,subjects without a TEAE,[3],3 subjects
same,Primary reason for discontinuation of treatment: Disease Progression,unresectable HCC; Full Analysis Set,347 (72.9) n (%)
same,Median overall survival,unresectable HCC; in vivo,12.3 mo
same,Median progression-free survival,unresectable HCC; mRECIST,3.7 mo
same,Median time to progression,unresectable HCC; mRECIST,3.7 mo
same,Objective response rate,unresectable HCC; mRECIST,9.2%
same,time to clinically meaningful deterioration of quality of life,[4],deterioration was observed earlier
same,Median overall survival,HCC; first-line treatment for HCC,10.7 months
same,median improvement in overall survival compared with placebo,HCC; in vivo,2.8 months
same,response rate,HCC; in vivo,2%
"COc1cc2nccc(Oc3ccc(NC(=O)NC4CC4)c(Cl)c3)c2cc1C(N)=O [LENVIMA, 4-[3-chloro-4-(N′-cyclopropylureido)phenoxy]-7-methoxyquinoline-6-carboxamide methanesulfonate]",Median PFS,"[1]; RECIST 1.1, independent review",7.3 months
same,Objective response rate,"[1]; RECIST 1.1, independent review",19%
same,PFS Number of Events,"[1]; RECIST 1.1, independent review",307
same,PFS Number of Events (%),"[1]; RECIST 1.1, independent review",(64) %
same,Number of deaths,[1]; in vivo,351
same,Number of deaths (%),[1]; in vivo,(73) %
same,Objective response rate,"[1]; mRECIST, independent review",41%
same,PFS Number of Events,"[1]; mRECIST, independent review",311
same,PFS Number of Events (%),"[1]; mRECIST, independent review",(65) %
same,pKa,Dissociation constant,5.05
same,adverse reactions leading to dose reduction or interruption,[2]; in vivo,about 62%
same,discontinuation due to fatigue,[2]; in vivo,1%
same,discontinuation due to hepatic encephalopathy,[2]; in vivo,1%
same,discontinuation due to hepatic failure,[2]; in vivo,1%
same,discontinuation due to hyperbilirubinemia,[2]; in vivo,1%
same,dose reduction or interruption due to decreased appetite,[2]; in vivo,8%
same,dose reduction or interruption due to diarrhea,[2]; in vivo,8%
same,dose reduction or interruption due to fatigue,[2]; in vivo,9%
same,dose reduction or interruption due to hypertension,[2]; in vivo,6%
same,dose reduction or interruption due to palmar-plantar erythrodysesthesia syndrome,[2]; in vivo,5%
same,dose reduction or interruption due to proteinuria,[2]; in vivo,7%
same,serious adverse reaction: ascites,[2]; in vivo,3%
same,serious adverse reaction: decreased appetite,[2]; in vivo,2%
same,serious adverse reaction: hepatic encephalopathy,[2]; in vivo,4%
same,serious adverse reaction: hepatic failure,[2]; in vivo,3%
same,treatment discontinuation due to adverse reactions,[2]; in vivo,20%
same,logP,Partition coefficient,3.3
same,solubility in ethanol (dehydrated),Solubility,practically insoluble
same,solubility in water,Solubility,slightly soluble
